Assay results taken from PubChem BioAssay AID624480 (The Scripps Research Institute Molecular Screening Center, 2012).
Active and inactive are the calls of the source.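 The calls were made as follows: active = inhibition of probe labeling in the gel above a set limit; inactive = inhibition at or below that limit.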

molecular target: Prolyl endopeptidase-like (Mus musculus) (UniProt Q8C167); assay: mouse PREPL activity blockade, proteome background – biochemical, gel-based competitive ABPP, fluorescence, assay provider (AID 624480); conditions: mouse brain proteome spiked PREPL, FP-Rh gel ABPP; at 50 µM; hits give high values
Sequence (Q8C167 whole entry, looked up): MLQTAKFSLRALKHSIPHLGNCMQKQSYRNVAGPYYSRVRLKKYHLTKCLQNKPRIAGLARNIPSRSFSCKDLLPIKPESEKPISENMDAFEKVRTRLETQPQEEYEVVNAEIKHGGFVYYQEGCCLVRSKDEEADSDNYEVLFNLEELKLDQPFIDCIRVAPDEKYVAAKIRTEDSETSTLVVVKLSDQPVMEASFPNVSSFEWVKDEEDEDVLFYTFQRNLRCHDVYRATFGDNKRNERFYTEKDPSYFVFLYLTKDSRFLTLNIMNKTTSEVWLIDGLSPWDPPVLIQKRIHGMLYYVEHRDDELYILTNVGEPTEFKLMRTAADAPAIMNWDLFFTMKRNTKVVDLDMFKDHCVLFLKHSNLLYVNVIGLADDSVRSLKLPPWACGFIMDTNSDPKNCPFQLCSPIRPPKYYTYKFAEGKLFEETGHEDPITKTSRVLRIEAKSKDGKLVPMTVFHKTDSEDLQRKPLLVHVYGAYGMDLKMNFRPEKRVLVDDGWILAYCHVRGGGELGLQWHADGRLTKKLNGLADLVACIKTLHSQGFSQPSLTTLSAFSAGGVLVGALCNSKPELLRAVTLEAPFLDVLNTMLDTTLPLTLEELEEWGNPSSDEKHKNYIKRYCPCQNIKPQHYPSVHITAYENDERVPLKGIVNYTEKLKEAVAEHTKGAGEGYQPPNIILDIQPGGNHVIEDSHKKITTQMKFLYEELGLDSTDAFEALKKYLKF

| SMILES | inhibition |
| --- | --- |
| COc1cc2nc(Nc3ccc(C)c(C)c3)nc(N)c2cc1OC | 17% (inactive) |
| N#Cc1c2c(c(-c3ccccc3)[nH]c1=O)CCCC2 | 41% |
| O=C(Nc1ccc2c(c1)OCCO2)c1cccc2nc3ccccc3nc12 | 15% (inactive) |
| CC(C)Cc1[nH]c(=O)c(C#N)c2c1CCC2 | 70% |
| CCOc1ccc(CCNC(=O)c2ccc3c(=O)[nH]c4c(C(=O)NC(C)C)sc(=S)n4c3c2)cc1 | 25% |
